Read-outs that look alike come from different tables or passages of the source.
Experiments:
[1] = tested on: Respiratory Syncytial Virus (RSV) long strain; assay: microbe, parasite or virus in culture; type: cell-based; details: human respiratory syncytial virus, Tables A and B list compounds by EC50 band
Procedure, shortened: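 HEp-2 cells infected with 100 TCID50 virus per well, compounds in duplicate, 9-point 1/3 dilutions from 100 μM or 1 μM, 1% DMSO. After 5 days at 37 °C, cell viability (CPE protection) read by CCK-8 absorbance at 450 nm, 630 nm background.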

[2] = Cytotoxicity Determination (CCK-8, without addition of virus); type: cell-based; details: human, 50% cytotoxicity concentration (CC50)
Procedure, shortened: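 HEp-2 cells were seeded at 1,500 cells/well one day before compound addition. Compounds were tested without virus in duplicate over 7 points from 100 μM in 1/2 steps, with 1% final DMSO, 5 days at 37 °C, 5% CO2. Viability was read by CCK-8 after 3-4 hours.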

recombinant RSV complex = recombinant RSV complex (Human respiratory syncytial virus A, UniProt P28887); assay: RSV Polymerase Inhibition Assay; type: biochemical
Chain of recombinant RSV complex (P28887 whole entry): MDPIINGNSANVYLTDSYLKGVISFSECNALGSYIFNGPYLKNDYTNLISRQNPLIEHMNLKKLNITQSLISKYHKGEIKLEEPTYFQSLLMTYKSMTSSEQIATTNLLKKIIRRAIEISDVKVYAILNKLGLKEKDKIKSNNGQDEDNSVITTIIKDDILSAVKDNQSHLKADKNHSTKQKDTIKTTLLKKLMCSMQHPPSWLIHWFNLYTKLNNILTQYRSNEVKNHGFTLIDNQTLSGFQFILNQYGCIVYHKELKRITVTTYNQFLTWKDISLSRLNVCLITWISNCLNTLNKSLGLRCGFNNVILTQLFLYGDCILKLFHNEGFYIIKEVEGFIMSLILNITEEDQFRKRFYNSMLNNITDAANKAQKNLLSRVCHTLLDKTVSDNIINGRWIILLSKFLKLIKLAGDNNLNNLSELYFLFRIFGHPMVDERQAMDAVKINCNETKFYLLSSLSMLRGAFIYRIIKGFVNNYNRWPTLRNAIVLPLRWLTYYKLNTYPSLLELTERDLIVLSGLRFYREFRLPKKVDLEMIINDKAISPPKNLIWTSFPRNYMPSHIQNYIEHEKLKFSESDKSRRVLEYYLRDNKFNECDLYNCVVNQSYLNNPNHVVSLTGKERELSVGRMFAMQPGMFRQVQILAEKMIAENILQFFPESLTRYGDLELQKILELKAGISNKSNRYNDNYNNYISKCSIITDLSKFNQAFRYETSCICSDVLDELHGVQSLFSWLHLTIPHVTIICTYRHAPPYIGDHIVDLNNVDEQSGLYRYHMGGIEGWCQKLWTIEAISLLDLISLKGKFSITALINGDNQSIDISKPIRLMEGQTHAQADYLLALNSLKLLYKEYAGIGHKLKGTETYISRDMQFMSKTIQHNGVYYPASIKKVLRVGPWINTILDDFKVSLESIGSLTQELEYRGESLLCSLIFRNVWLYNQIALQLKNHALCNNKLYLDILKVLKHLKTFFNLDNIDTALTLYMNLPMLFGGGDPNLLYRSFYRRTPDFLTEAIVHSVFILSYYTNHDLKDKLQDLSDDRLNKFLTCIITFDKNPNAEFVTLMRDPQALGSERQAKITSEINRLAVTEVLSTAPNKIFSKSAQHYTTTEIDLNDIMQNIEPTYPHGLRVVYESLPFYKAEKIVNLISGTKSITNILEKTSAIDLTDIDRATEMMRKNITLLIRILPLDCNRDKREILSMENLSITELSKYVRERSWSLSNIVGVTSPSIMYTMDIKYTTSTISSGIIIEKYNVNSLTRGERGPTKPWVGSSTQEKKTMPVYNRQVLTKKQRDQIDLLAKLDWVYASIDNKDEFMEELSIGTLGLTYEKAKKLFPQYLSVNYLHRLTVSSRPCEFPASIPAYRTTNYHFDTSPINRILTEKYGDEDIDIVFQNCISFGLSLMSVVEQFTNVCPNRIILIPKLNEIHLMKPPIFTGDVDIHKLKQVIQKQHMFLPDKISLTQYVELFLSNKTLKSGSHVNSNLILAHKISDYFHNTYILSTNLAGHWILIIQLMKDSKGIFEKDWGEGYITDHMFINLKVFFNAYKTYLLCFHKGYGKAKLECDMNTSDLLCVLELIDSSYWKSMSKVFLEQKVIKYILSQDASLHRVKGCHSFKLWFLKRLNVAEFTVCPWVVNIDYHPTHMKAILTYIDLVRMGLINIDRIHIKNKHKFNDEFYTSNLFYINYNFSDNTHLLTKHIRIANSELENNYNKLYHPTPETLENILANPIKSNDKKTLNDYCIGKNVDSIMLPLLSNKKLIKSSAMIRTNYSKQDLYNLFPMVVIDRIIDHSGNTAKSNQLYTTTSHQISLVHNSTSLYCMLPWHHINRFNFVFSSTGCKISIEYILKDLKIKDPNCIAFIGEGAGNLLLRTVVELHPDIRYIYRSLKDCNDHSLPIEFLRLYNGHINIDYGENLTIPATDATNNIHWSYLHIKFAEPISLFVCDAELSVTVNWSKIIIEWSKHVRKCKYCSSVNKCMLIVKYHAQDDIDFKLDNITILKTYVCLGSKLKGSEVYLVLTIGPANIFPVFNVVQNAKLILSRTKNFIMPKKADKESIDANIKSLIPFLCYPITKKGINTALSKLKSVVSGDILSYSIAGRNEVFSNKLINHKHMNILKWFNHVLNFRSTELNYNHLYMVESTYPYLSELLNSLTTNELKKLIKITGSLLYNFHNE
Chain of recombinant RSV complex (P03421 whole entry, further chain): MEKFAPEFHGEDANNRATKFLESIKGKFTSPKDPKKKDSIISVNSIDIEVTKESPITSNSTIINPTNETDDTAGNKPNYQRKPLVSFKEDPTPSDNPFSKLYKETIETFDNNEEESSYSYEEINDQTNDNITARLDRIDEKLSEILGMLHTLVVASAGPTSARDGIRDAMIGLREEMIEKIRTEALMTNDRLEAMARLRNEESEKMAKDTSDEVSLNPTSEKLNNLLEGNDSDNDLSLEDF
Procedure, shortened: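 10 nM recombinant RSV polymerase complex in Tris-HCl pH 7.5, 6 mM MgCl2 with RNA oligonucleotide template and radionucleotides, incubated 2 h at 30 °C with increasing inhibitor concentrations. Reaction stopped with EDTA; radiolabeled RNA product counted by scintillation.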

RSV replicon = assay: microbe, parasite or virus in culture; type: cell-based; details: human respiratory syncytial virus, read-out: EC50, the concentration of the drug required for reducing RSV replicon RNA by 50%
[3] = HEp-2, 120 h, read-out: 50% effective concentration (EC50), HEp-2 cells infected with RSV long strain, 5 days, CCK-8 readout
[4] = 120 h, read-out: 50% effective concentration (EC50), HEp-2 cells infected with RSV long strain, 5 days, CCK-8 readout

SMILES | EC50 [1, 3] | CC50 at 5 days [2] | IC50 (recombinant RSV complex) | EC50 (RSV replicon) | EC50 [1, 4]
COc1cc(C(=O)NCC(O)(c2ccc(OC)c(-c3ccc(F)c(Cl)c3)n2)C(C)O)ccc1OC1CC1 (centres unmarked) [Compound 454] | < 1000 nM | 10000 to 100000 nM | < 1000 nM | < 1000 nM | 
COc1cc(C(=O)NCC(O)(c2cc3c(c(-c4ccc(F)cc4)n2)OCC3(C)N)C(F)(F)F)ccc1OCC(N)=O (centres unmarked) [Compound 543] | < 1000 nM | 10000 to 100000 nM | < 1000 nM | < 1000 nM | 
COc1ccc(C(O)(CNC(=O)c2ccc(OCCO)c(Cl)c2)C2CC2)nc1-c1ccc(F)c(Cl)c1 (centres unmarked) [Compound 425] | < 1000 nM | 10000 to 100000 nM | < 1000 nM | < 1000 nM | 
COc1cc(C(=O)NCC(C)(O)c2ccc(OC)c(-c3c[nH]c4c(F)cccc34)n2)ccc1OCCO (racemic) [Compound 117] | < 1000 nM | 10000 to 100000 nM | < 1000 nM | < 1000 nM | 
CCOc1ccc(C(=O)NCC(O)(c2cc(C(C)(C)N)cc(-c3ccc(F)c(Cl)c3)n2)C(F)(F)F)cc1OC (centres unmarked) [Compound 315] | < 1000 nM | 10000 to 100000 nM | < 1000 nM | < 1000 nM | 
COc1cc(C(=O)NCC(O)(Cn2ccnc2)c2cc3c(c(-c4ccc(F)c(Cl)c4)n2)OCC3(C)C)cc2cccnc12 (centres unmarked) [Compound 226] | < 1000 nM | 10000 to 100000 nM | < 1000 nM | < 1000 nM | 
COc1cc(C(=O)NCC(O)(c2ccc(OC)c(-c3ccc(F)c(Cl)c3)n2)C(F)(F)F)ccc1OC1(C)CC1 (centres unmarked) [Compound 249] | < 1000 nM | 10000 to 100000 nM | < 1000 nM | < 1000 nM | 
COc1ccc(C(O)(CNC(=O)c2ccc(OCC(N)=O)c(Cl)c2)C(F)(F)F)nc1-c1ccc(F)c(Cl)c1 (centres unmarked) [Compound 237] | < 1000 nM | 10000 to 100000 nM | < 1000 nM | < 1000 nM | 
COc1cc(C(=O)NC[C@](O)(c2cc(C(C)(C)N)cc(-c3ccc(F)cc3)n2)C(F)(F)F)ccc1OCC(N)=O [Compound 562] | < 1000 nM | > 100000 nM | < 1000 nM | < 1000 nM | 
COc1cc(C(=O)NCC(O)(c2cc3c(c(-c4ccc(F)c(Cl)c4)n2)OCC3(C)C)C(F)(F)F)ccc1OCC(C)O (centres unmarked) [Compound 211] | < 1000 nM | 10000 to 100000 nM | < 1000 nM | < 1000 nM | 
COc1cc(C(=O)NCC(O)(c2cc(C3(N)CC3)cc(-c3ccc(F)cc3)n2)C(F)(F)F)ccc1OC[C@@H](C)O (some centres unmarked) [Compound 598] | < 1000 nM | 10000 to 100000 nM | < 1000 nM | < 1000 nM | 
COc1cc(C(=O)NCC(O)(c2cc3c(c(-c4ccc(F)c(Cl)c4)n2)OCC3(C)C)C2CC2)ccc1OC1CCNC1=O (centres unmarked) [Compound 223] | < 1000 nM | 10000 to 100000 nM | < 1000 nM | < 1000 nM | 
COc1cc(C(=O)NCC(O)(c2cc(CN)cc(-c3ccc(F)cc3)n2)C(F)(F)F)ccc1OC1CC1 (centres unmarked) [Compound 361] | < 1000 nM | 10000 to 100000 nM | < 1000 nM | < 1000 nM | 
COc1cc(C(=O)NCC(O)(CN2CCC2)c2ccc(OC)c(-c3ccc(F)c(Cl)c3)n2)ccc1OC1CC1 (centres unmarked) [Compound 462] | < 1000 nM | 10000 to 100000 nM | < 1000 nM | < 1000 nM | 
COc1cc(C(=O)NCC(O)(c2ccc(OC)c(-c3ccc(F)c(Cl)c3)n2)C2CC2)ccc1OCCO (centres unmarked) [Compound 241] | < 1000 nM | 10000 to 100000 nM | < 1000 nM | < 1000 nM | 
COc1cc(C(=O)NCC(O)(c2cc(C(C)(C)N)cc(-c3ccc(F)c(Cl)c3)n2)C(F)(F)F)ccc1O[C@H]1CCNC1=O (some centres unmarked) [Compound 283] | < 1000 nM | 10000 to 100000 nM | < 1000 nM | < 1000 nM | 

SMILES | EC50 [1, 3] | CC50 at 5 days [2] | IC50 (recombinant RSV complex) | EC50 (RSV replicon) | EC50 [1, 4]
COc1cc(C(=O)NCC(O)(CNC(C)=O)c2ccc(OC)c(-c3ccc(F)c(Cl)c3)n2)ccc1OCCO (centres unmarked) [Compound 195] | < 1000 nM | > 100000 nM | < 1000 nM | < 1000 nM | 
COc1cc(C(=O)NCC(C)(O)c2ccc(OC)c(-c3ccc(F)c(Br)c3)n2)ccc1OCC(N)=O (centres unmarked) [Compound 403] | < 1000 nM | > 100000 nM | < 1000 nM | < 1000 nM | 
COc1cc(C(=O)NCC(O)(c2cc(C(C)(C)N)cc(-c3ccc(F)c(Cl)c3)n2)C(F)(F)F)ccc1OCC(N)=O (centres unmarked) [Compound 322] | < 1000 nM | 10000 to 100000 nM | < 1000 nM | < 1000 nM | 
COc1cc(C(=O)NCC(O)(c2cc3c(c(-c4ccc(F)c(Cl)c4)n2)OCC3(C)C)C(F)(F)F)cc2cccnc12 (centres unmarked) [Compound 208] | < 1000 nM | 10000 to 100000 nM | < 1000 nM | < 1000 nM | 
COc1cc(C(=O)NCC(O)(c2cc(CN)cc(-c3ccc(F)c(Cl)c3)n2)C(F)(F)F)ccc1OC[C@@H](C)O (some centres unmarked) [Compound 357] | < 1000 nM | 10000 to 100000 nM | < 1000 nM | < 1000 nM | 
COc1cc(C(=O)NCC(O)(c2cc(C(C)(C)NC(C)=O)cc(-c3ccc(F)c(Cl)c3)n2)C(F)(F)F)ccc1OCC(N)=O (centres unmarked) [Compound 612] | < 1000 nM | > 100000 nM | < 1000 nM | < 1000 nM | 
COc1cc(C(=O)NCC(C)(O)c2cc3c(c(-c4ccc(F)c(Cl)c4)n2)OCC3(C)C)ccc1OCCO (racemic) [Compound 166] | < 1000 nM | 10000 to 100000 nM | < 1000 nM | < 1000 nM | 
COc1cc(C(=O)NCC(O)(c2cc3c(c(-c4ccc(F)c(Cl)c4)n2)OCC3C)C2CC2)ccc1OCCO (centres unmarked) [Compound 308] | < 1000 nM | 10000 to 100000 nM | < 1000 nM | < 1000 nM | 
COc1cc(C(=O)NCC(O)(c2cc([C@]3(C)CCN3)cc(-c3ccc(F)cc3)n2)C(F)(F)F)ccc1OCCO (some centres unmarked) [Compound 650] |  | 10000 to 100000 nM | < 1000 nM | < 1000 nM | < 1000 nM
COc1cc(C(=O)NCC(O)(c2cc3c(c(-c4ccc(F)c(Cl)c4)n2)OCC3(C)N)C(F)(F)F)ccc1OC1CC1 (centres unmarked) [Compound 483] | < 1000 nM | 10000 to 100000 nM | < 1000 nM | < 1000 nM | 
COc1cc(C(=O)NCC(O)(c2ccc(OC)c(-c3ccc(F)c(Cl)c3)n2)C(F)(F)F)ccc1OC(C)C(N)=O (centres unmarked) [Compound 338] | < 1000 nM | 10000 to 100000 nM |  | < 1000 nM | 
COc1cc(C(=O)NCC(O)(c2cc3c(c(-c4ccc(F)c(Cl)c4)n2)OCCC3(C)C)C(F)(F)F)ccc1OC[C@@H](C)O (some centres unmarked) [Compound 346] | < 1000 nM | 10000 to 100000 nM |  | < 1000 nM | 
COc1ccc(C(=O)NCC(O)c2cccc(-c3csc4c(F)cccc34)n2)cc1OC (centres unmarked) [Compound 106] |  | 10000 to 100000 nM |  | < 1000 nM | 1000 to 50000 nM
COc1ccc(C(O)(CNC(=O)c2cc(OC)c3ncccc3c2)C(F)(F)F)nc1-c1ccc(F)c(Cl)c1 (centres unmarked) [Compound 339] | < 1000 nM | 10000 to 100000 nM |  | < 1000 nM | 
COc1cc(C(=O)NCC(O)(c2cc3c(c(-c4ccc(F)c(Cl)c4)n2)OCCC3(C)C)C(F)(F)F)ccc1OC1CC1 (centres unmarked) [Compound 345] | < 1000 nM | > 100000 nM |  | < 1000 nM | 
COc1cc(C(=O)NCC(O)(c2cc3c(c(-c4ccc(F)c(Cl)c4)n2)OCCC3(C)C)C(F)(F)F)ccc1OC1CCNC1=O (centres unmarked) [Compound 348] | < 1000 nM | 10000 to 100000 nM |  | < 1000 nM | 

— US11021444B2, “Antiviral compounds” (priority 2013, dated 2021)
